#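 48-hour exposure; five concentrations; linearly interpolated endpoints. TGI denotes the concentration required for complete inhibition of growth.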
# Legend:
# Experiment in all cases: NCI-60 cell line screen, 48 h
# 786-0 renal = system: 786-0 renal
# A498 renal = system: A498 renal
# A549 NSCLC = system: A549 NSCLC
# ACHN renal = system: ACHN renal
# CAKI-1 renal = system: CAKI-1 renal
# CCRF-CEM leukemia = system: CCRF-CEM leukemia
# COLO 205 colon = system: COLO 205 colon
# DLD-1 colon = system: DLD-1 colon
# DMS 114 small cell lung = system: DMS 114 small cell lung
# DMS 273 small cell lung = system: DMS 273 small cell lung
# EKVX NSCLC = system: EKVX NSCLC
# HCC-2998 colon = system: HCC-2998 colon
# HCT-116 colon = system: HCT-116 colon
# HCT-15 colon = system: HCT-15 colon
# HL-60(TB) leukemia = system: HL-60(TB) leukemia
# HOP-18 NSCLC = system: HOP-18 NSCLC
# HOP-62 NSCLC = system: HOP-62 NSCLC
# HOP-92 NSCLC = system: HOP-92 NSCLC
# HT29 colon = system: HT29 colon
# IGROV1 ovarian = system: IGROV1 ovarian
# K-562 leukemia = system: K-562 leukemia
# KM12 colon = system: KM12 colon
# KM20L2 colon = system: KM20L2 colon
# LOX IMVI melanoma = system: LOX IMVI melanoma
# LXFL 529 NSCLC = system: LXFL 529 NSCLC
# M14 melanoma = system: M14 melanoma
# M19-MEL melanoma = system: M19-MEL melanoma
# MALME-3M melanoma = system: MALME-3M melanoma
# MOLT-4 leukemia = system: MOLT-4 leukemia
# NCI-H226 lung = system: NCI-H226 lung
# NCI-H23 lung = system: NCI-H23 lung
# NCI-H460 lung = system: NCI-H460 lung
# NCI-H522 lung = system: NCI-H522 lung
# OVCAR-3 ovarian = system: OVCAR-3 ovarian
# OVCAR-4 ovarian = system: OVCAR-4 ovarian
# OVCAR-5 ovarian = system: OVCAR-5 ovarian
# OVCAR-8 ovarian = system: OVCAR-8 ovarian
# RXF 393 renal = system: RXF 393 renal
# SF-268 CNS = system: SF-268 CNS
# SF-295 CNS = system: SF-295 CNS
# SF-539 CNS = system: SF-539 CNS
# SK-MEL-2 melanoma = system: SK-MEL-2 melanoma
# SK-MEL-28 melanoma = system: SK-MEL-28 melanoma
# SK-MEL-5 melanoma = system: SK-MEL-5 melanoma
# SK-OV-3 ovarian = system: SK-OV-3 ovarian
# SN12C renal = system: SN12C renal
# SNB-19 CNS = system: SNB-19 CNS
# SNB-75 CNS = system: SNB-75 CNS
# SNB-78 CNS = system: SNB-78 CNS
# SR leukemia = system: SR leukemia
# SW-620 colon = system: SW-620 colon
# TK-10 renal = system: TK-10 renal
# U251 CNS = system: U251 CNS
# UACC-257 melanoma = system: UACC-257 melanoma
# UACC-62 melanoma = system: UACC-62 melanoma
# UO-31 renal = system: UO-31 renal
# XF 498 CNS = system: XF 498 CNS
# RPMI-8226 leukemia = system: RPMI-8226 leukemia
structure (smiles),measurement,setting,value
O=C(/C=C/c1ccc(Br)cc1)c1ccc(NCc2nc3ccccc3[nH]2)cc1,TGI,786-0 renal,> 56.2 µM
same,TGI,A498 renal,> 87.1 µM
same,TGI,A549 NSCLC,> 54.7 µM
same,TGI,ACHN renal,81.2 µM
same,TGI,CAKI-1 renal,> 57.4 µM
same,TGI,CCRF-CEM leukemia,> 40.1 µM
same,TGI,COLO 205 colon,13 µM
same,TGI,DLD-1 colon,> 67.4 µM
same,TGI,DMS 114 small cell lung,> 37.5 µM
same,TGI,DMS 273 small cell lung,> 54.6 µM
same,TGI,EKVX NSCLC,> 100 µM
same,TGI,HCC-2998 colon,88.5 µM
same,TGI,HCT-116 colon,> 49.1 µM
same,TGI,HCT-15 colon,17.3 µM
same,TGI,HL-60(TB) leukemia,> 22.9 µM
same,TGI,HOP-18 NSCLC,> 100 µM
same,TGI,HOP-62 NSCLC,> 61.2 µM
same,TGI,HOP-92 NSCLC,28.3 µM
same,TGI,HT29 colon,27.4 µM
same,TGI,IGROV1 ovarian,> 76.3 µM
same,TGI,K-562 leukemia,> 37.3 µM
same,TGI,KM12 colon,> 100 µM
same,TGI,KM20L2 colon,> 100 µM
same,TGI,LOX IMVI melanoma,6.91 µM
same,TGI,LXFL 529 NSCLC,> 46.2 µM
same,TGI,M14 melanoma,> 100 µM
same,TGI,M19-MEL melanoma,> 100 µM
same,TGI,MALME-3M melanoma,> 100 µM
same,TGI,MOLT-4 leukemia,39.9 µM
same,TGI,NCI-H226 lung,54.3 µM
same,TGI,NCI-H23 lung,> 42.5 µM
same,TGI,NCI-H460 lung,> 42.2 µM
same,TGI,NCI-H522 lung,19.4 µM
same,TGI,OVCAR-3 ovarian,> 100 µM
same,TGI,OVCAR-4 ovarian,> 62.6 µM
same,TGI,OVCAR-5 ovarian,> 100 µM
same,TGI,OVCAR-8 ovarian,> 52.6 µM
same,TGI,RXF 393 renal,24.4 µM
same,TGI,SF-268 CNS,33 µM
same,TGI,SF-295 CNS,> 46.3 µM
same,TGI,SF-539 CNS,24.3 µM
same,TGI,SK-MEL-2 melanoma,> 82.1 µM
same,TGI,SK-MEL-28 melanoma,> 100 µM
same,TGI,SK-MEL-5 melanoma,> 46.8 µM
same,TGI,SK-OV-3 ovarian,> 69.3 µM
same,TGI,SN12C renal,66.5 µM
same,TGI,SNB-19 CNS,> 53.5 µM
same,TGI,SNB-75 CNS,20.6 µM
same,TGI,SNB-78 CNS,16.6 µM
same,TGI,SR leukemia,84.6 µM
same,TGI,SW-620 colon,21.2 µM
same,TGI,TK-10 renal,> 55.3 µM
same,TGI,U251 CNS,> 36.8 µM
same,TGI,UACC-257 melanoma,> 63.4 µM
same,TGI,UACC-62 melanoma,> 76.2 µM
same,TGI,UO-31 renal,31.2 µM
same,TGI,XF 498 CNS,49.3 µM
O=C1C(=Cc2cccs2)C(=O)N(CCc2ccccc2)S(=O)(=O)N1CCc1ccccc1,TGI,786-0 renal,> 50 µM
same,TGI,A549 NSCLC,> 50 µM
same,TGI,ACHN renal,> 50 µM
same,TGI,CCRF-CEM leukemia,> 50 µM
same,TGI,COLO 205 colon,> 50 µM
same,TGI,DLD-1 colon,> 50 µM
same,TGI,DMS 114 small cell lung,22.2 µM
same,TGI,DMS 273 small cell lung,> 50 µM
same,TGI,EKVX NSCLC,> 50 µM
same,TGI,HCC-2998 colon,> 50 µM
same,TGI,HCT-116 colon,30.4 µM
same,TGI,HCT-15 colon,> 50 µM
same,TGI,HL-60(TB) leukemia,38.4 µM
same,TGI,HOP-18 NSCLC,> 50 µM
same,TGI,HOP-92 NSCLC,> 50 µM
same,TGI,HT29 colon,> 50 µM
same,TGI,IGROV1 ovarian,16.5 µM
same,TGI,K-562 leukemia,> 50 µM
same,TGI,KM12 colon,> 50 µM
same,TGI,KM20L2 colon,> 50 µM
same,TGI,LOX IMVI melanoma,> 50 µM
same,TGI,LXFL 529 NSCLC,> 50 µM
same,TGI,M14 melanoma,> 50 µM
same,TGI,M19-MEL melanoma,> 50 µM
same,TGI,MALME-3M melanoma,> 50 µM
same,TGI,MOLT-4 leukemia,> 50 µM
same,TGI,NCI-H226 lung,> 50 µM
same,TGI,NCI-H23 lung,> 50 µM
same,TGI,NCI-H460 lung,> 50 µM
same,TGI,NCI-H522 lung,> 50 µM
same,TGI,OVCAR-3 ovarian,> 50 µM
same,TGI,OVCAR-4 ovarian,> 50 µM
same,TGI,OVCAR-5 ovarian,> 50 µM
same,TGI,OVCAR-8 ovarian,> 50 µM
same,TGI,RPMI-8226 leukemia,> 50 µM
same,TGI,RXF 393 renal,> 50 µM
same,TGI,SF-268 CNS,> 50 µM
same,TGI,SF-295 CNS,> 50 µM
same,TGI,SF-539 CNS,> 50 µM
same,TGI,SK-MEL-2 melanoma,> 50 µM
same,TGI,SK-MEL-28 melanoma,> 50 µM
same,TGI,SK-MEL-5 melanoma,> 50 µM
same,TGI,SK-OV-3 ovarian,> 50 µM
same,TGI,SN12C renal,> 50 µM
same,TGI,SNB-19 CNS,> 50 µM
same,TGI,SNB-75 CNS,> 50 µM
same,TGI,SNB-78 CNS,> 50 µM
same,TGI,SR leukemia,> 50 µM
same,TGI,SW-620 colon,> 50 µM
same,TGI,TK-10 renal,> 50 µM
same,TGI,U251 CNS,35.2 µM
same,TGI,UACC-257 melanoma,> 50 µM
same,TGI,UACC-62 melanoma,> 50 µM
same,TGI,UO-31 renal,> 50 µM
same,TGI,XF 498 CNS,> 50 µM
Oc1ccc(-c2nc(=S)[nH][nH]2)cc1,TGI,786-0 renal,> 100 µM
same,TGI,A498 renal,> 100 µM
same,TGI,A549 NSCLC,> 100 µM
same,TGI,ACHN renal,> 100 µM
same,TGI,CAKI-1 renal,> 100 µM
same,TGI,CCRF-CEM leukemia,> 100 µM
same,TGI,COLO 205 colon,> 100 µM
same,TGI,DLD-1 colon,> 100 µM
same,TGI,DMS 114 small cell lung,> 100 µM
same,TGI,DMS 273 small cell lung,> 100 µM
same,TGI,EKVX NSCLC,> 100 µM
same,TGI,HCT-116 colon,> 100 µM
same,TGI,HCT-15 colon,> 100 µM
same,TGI,HL-60(TB) leukemia,> 100 µM
same,TGI,HOP-18 NSCLC,> 100 µM
same,TGI,HOP-62 NSCLC,> 100 µM
same,TGI,HOP-92 NSCLC,> 100 µM
same,TGI,HT29 colon,> 100 µM
same,TGI,IGROV1 ovarian,> 100 µM
same,TGI,K-562 leukemia,> 100 µM
same,TGI,KM12 colon,> 100 µM
same,TGI,KM20L2 colon,> 100 µM
same,TGI,LXFL 529 NSCLC,> 100 µM
same,TGI,M14 melanoma,> 100 µM
same,TGI,M19-MEL melanoma,> 100 µM
same,TGI,MALME-3M melanoma,> 100 µM
same,TGI,MOLT-4 leukemia,> 100 µM
same,TGI,NCI-H226 lung,> 100 µM
same,TGI,NCI-H23 lung,> 100 µM
same,TGI,NCI-H460 lung,> 100 µM
same,TGI,NCI-H522 lung,> 100 µM
same,TGI,OVCAR-3 ovarian,> 100 µM
same,TGI,OVCAR-4 ovarian,> 100 µM
same,TGI,OVCAR-5 ovarian,> 100 µM
same,TGI,OVCAR-8 ovarian,> 100 µM
same,TGI,RPMI-8226 leukemia,> 100 µM
same,TGI,SF-268 CNS,> 100 µM
same,TGI,SF-295 CNS,> 100 µM
same,TGI,SF-539 CNS,> 100 µM
same,TGI,SK-MEL-2 melanoma,> 100 µM
same,TGI,SK-MEL-28 melanoma,> 100 µM
same,TGI,SK-MEL-5 melanoma,> 100 µM
same,TGI,SK-OV-3 ovarian,> 100 µM
same,TGI,SN12C renal,> 100 µM
same,TGI,SNB-19 CNS,> 100 µM
same,TGI,SNB-75 CNS,> 100 µM
same,TGI,SNB-78 CNS,> 100 µM
same,TGI,SR leukemia,> 100 µM
same,TGI,SW-620 colon,> 100 µM
same,TGI,TK-10 renal,> 100 µM
same,TGI,U251 CNS,> 100 µM
same,TGI,UACC-257 melanoma,> 100 µM
same,TGI,UACC-62 melanoma,> 100 µM
same,TGI,UO-31 renal,> 100 µM
same,TGI,XF 498 CNS,> 100 µM

# — PubChem BioAssay (NCI)
